Assay results taken from publication PMC4893804 (Journal of medicinal chemistry, 2015).
Where two headings read alike, the source gives them in different places.

Key:
Format in all cases: biochemical
VZV DNA polymerase = VZV DNA polymerase (Varicella-zoster virus, UniProt P09252); assay: Enzyme assay with VZV DNA polymerase
HSV-1 DNA polymerase = HSV-1 DNA polymerase (Human herpesvirus 1, UniProt P04293); assay: Enzyme assay with HSV-1 DNA polymerase
HIV-1 RT = HIV-1 RT (Human immunodeficiency virus type 1 group M subtype B, UniProt P03366); assay: HIV-1 reverse transcriptase assay with homopolymeric template/primers
Human DNA Pol α = target: T1, Human DNA Pol α (Homo sapiens, UniProt P09884); assay: Enzyme assay with human DNA polymerase α
T1 sequence (P09884 1-1462): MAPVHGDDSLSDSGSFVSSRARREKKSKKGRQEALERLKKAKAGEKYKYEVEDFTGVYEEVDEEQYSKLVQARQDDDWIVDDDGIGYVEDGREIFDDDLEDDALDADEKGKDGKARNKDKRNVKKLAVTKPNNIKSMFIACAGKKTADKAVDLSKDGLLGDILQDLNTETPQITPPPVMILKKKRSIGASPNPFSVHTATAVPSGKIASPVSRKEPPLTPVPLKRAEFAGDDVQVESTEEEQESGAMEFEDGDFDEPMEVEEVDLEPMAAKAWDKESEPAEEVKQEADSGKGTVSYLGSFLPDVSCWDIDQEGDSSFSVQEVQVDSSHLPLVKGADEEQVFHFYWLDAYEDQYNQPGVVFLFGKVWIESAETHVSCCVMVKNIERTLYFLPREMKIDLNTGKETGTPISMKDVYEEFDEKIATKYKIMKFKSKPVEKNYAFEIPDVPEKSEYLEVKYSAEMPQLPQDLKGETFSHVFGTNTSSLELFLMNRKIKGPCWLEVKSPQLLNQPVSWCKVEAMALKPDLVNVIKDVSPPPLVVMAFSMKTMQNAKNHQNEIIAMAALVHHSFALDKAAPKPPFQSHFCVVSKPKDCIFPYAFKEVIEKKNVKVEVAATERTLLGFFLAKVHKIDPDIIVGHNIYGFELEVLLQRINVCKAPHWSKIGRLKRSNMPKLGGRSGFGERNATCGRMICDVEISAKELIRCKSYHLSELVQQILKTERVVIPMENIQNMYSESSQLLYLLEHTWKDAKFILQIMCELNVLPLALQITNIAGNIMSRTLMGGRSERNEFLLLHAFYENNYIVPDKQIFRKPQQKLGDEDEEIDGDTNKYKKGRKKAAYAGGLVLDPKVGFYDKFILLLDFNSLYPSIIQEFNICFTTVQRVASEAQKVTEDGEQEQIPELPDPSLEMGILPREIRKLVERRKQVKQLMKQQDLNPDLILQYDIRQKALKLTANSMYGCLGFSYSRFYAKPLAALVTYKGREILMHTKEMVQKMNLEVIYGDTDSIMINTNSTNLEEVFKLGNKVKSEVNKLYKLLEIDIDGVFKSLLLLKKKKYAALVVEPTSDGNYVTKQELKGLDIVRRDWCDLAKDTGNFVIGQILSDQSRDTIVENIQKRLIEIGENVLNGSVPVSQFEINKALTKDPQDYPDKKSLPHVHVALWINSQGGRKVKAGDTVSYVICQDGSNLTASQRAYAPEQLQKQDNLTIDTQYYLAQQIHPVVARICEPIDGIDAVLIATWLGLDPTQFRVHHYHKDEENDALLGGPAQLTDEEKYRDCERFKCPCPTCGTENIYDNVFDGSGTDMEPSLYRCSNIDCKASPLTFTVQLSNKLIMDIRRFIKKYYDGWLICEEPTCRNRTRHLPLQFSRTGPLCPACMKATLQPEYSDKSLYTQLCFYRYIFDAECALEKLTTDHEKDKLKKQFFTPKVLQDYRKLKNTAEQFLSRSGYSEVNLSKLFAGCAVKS

Human DNA Pol β = Human DNA Pol β (Homo sapiens, UniProt P06746); assay: Enzyme assay with human DNA polymerase β
[1] = target: HCMV DNA polymerase (UL54) (Human cytomegalovirus, UniProt P08546); assay: Enzyme assay with HCMV DNA polymerase; settings: for IC50: activated calf thymus DNA, [3H]dTTP; for superior activity against HCMV DNA polymerase compared to thymine-α-CNP: ratio vs thymine-α-CNP
[2] = read-out: IC50 VZV DNA Pol, poly dA.oligo dT, [3H]dTTP
[3] = read-out: IC50 HSV-1 DNA Pol, activated calf thymus DNA, [3H]dTTP
[4] = read-out: IC50 HIV-1 RT, poly rA.dT template/primer, [3H]dTTP
[5] = read-out: IC50 Human DNA Pol α, activated calf thymus DNA, [3H]dTTP
[6] = read-out: IC50 Human DNA Pol β, activated calf thymus DNA, [3H]dTTP
[7] = IC50 HIV-1 RT, poly rA.dT template/primer, [3H]dTTP
[8] = read-out: IC50 HIV-1 RT Poly rA.dT ([3H]dTTP), Table 7, Poly rA.dT, [3H]dTTP
[9] = read-out: IC50 HIV-1 RT Poly rC.dG ([3H]dGTP), Poly rC.dG, [3H]dGTP
[10] = read-out: IC50 HIV-1 RT Poly rI.dC ([3H]dCTP), Poly rI.dC, [3H]dCTP
[11] = read-out: IC50 HIV-1 RT Poly rU.dA ([3H]dATP), Poly rU.dA, [3H]dATP

Sequence of HCMV DNA polymerase (UL54) (P08546 whole entry): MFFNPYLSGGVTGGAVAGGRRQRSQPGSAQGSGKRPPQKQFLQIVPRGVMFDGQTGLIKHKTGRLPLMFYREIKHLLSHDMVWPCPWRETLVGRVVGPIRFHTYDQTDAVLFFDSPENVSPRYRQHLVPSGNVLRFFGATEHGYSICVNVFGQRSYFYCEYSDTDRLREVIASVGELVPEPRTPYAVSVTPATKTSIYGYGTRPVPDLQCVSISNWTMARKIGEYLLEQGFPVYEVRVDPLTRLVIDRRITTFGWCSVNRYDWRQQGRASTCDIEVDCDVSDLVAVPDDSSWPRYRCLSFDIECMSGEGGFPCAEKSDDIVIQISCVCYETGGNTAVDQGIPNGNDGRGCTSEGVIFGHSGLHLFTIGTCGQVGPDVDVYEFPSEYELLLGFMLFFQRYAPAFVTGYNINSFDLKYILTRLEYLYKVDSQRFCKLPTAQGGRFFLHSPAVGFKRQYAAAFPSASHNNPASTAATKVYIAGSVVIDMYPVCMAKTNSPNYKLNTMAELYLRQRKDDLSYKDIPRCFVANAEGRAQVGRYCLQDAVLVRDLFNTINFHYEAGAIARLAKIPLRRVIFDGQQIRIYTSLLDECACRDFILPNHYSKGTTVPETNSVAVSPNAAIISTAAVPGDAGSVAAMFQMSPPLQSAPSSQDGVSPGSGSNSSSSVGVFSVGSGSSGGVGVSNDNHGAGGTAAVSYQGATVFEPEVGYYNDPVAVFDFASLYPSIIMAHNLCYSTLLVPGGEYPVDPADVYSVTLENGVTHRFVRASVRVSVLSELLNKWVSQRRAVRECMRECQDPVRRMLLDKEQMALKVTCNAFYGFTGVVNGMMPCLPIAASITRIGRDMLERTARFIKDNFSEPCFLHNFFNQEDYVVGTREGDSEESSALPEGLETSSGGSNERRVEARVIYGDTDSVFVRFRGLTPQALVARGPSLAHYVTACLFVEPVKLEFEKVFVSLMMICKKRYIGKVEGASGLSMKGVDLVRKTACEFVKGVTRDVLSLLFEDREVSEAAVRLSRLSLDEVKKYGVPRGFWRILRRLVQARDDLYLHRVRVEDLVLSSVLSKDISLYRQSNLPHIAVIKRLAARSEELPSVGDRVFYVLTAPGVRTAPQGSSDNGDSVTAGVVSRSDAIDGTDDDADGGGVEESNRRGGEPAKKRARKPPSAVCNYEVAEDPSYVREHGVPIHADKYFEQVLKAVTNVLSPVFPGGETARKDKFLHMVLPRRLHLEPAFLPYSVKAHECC
Sequence of VZV DNA polymerase (P09252 whole entry): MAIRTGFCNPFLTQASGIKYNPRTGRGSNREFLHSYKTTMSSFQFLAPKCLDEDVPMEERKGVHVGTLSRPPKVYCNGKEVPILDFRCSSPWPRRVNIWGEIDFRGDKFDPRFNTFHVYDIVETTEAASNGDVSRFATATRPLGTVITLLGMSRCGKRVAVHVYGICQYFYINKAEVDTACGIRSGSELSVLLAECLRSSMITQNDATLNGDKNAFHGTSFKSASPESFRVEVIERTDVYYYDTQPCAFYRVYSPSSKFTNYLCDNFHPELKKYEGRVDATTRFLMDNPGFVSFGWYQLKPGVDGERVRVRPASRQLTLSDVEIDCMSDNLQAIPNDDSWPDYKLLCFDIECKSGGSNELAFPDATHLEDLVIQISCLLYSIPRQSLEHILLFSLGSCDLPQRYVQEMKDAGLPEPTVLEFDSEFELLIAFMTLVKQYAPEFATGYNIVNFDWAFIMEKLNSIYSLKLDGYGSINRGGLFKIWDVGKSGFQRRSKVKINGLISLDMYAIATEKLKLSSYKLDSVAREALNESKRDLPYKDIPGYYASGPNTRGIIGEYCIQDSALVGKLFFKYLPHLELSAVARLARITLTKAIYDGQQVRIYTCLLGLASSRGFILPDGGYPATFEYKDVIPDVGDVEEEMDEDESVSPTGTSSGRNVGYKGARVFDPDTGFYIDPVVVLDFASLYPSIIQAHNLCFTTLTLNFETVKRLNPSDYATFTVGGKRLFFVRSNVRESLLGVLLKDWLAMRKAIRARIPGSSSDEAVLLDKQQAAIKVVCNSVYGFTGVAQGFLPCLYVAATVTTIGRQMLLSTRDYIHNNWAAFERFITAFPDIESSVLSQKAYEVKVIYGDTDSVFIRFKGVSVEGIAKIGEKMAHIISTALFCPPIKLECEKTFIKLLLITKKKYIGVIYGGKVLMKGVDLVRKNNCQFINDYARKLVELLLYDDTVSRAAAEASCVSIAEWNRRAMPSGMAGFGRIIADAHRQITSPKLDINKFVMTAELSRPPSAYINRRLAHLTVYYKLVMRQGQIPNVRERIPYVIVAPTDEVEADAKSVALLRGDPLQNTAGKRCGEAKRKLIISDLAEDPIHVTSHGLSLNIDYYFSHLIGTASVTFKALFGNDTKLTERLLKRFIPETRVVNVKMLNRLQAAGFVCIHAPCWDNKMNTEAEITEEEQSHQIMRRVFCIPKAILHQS
Sequence of HSV-1 DNA polymerase (P04293 whole entry): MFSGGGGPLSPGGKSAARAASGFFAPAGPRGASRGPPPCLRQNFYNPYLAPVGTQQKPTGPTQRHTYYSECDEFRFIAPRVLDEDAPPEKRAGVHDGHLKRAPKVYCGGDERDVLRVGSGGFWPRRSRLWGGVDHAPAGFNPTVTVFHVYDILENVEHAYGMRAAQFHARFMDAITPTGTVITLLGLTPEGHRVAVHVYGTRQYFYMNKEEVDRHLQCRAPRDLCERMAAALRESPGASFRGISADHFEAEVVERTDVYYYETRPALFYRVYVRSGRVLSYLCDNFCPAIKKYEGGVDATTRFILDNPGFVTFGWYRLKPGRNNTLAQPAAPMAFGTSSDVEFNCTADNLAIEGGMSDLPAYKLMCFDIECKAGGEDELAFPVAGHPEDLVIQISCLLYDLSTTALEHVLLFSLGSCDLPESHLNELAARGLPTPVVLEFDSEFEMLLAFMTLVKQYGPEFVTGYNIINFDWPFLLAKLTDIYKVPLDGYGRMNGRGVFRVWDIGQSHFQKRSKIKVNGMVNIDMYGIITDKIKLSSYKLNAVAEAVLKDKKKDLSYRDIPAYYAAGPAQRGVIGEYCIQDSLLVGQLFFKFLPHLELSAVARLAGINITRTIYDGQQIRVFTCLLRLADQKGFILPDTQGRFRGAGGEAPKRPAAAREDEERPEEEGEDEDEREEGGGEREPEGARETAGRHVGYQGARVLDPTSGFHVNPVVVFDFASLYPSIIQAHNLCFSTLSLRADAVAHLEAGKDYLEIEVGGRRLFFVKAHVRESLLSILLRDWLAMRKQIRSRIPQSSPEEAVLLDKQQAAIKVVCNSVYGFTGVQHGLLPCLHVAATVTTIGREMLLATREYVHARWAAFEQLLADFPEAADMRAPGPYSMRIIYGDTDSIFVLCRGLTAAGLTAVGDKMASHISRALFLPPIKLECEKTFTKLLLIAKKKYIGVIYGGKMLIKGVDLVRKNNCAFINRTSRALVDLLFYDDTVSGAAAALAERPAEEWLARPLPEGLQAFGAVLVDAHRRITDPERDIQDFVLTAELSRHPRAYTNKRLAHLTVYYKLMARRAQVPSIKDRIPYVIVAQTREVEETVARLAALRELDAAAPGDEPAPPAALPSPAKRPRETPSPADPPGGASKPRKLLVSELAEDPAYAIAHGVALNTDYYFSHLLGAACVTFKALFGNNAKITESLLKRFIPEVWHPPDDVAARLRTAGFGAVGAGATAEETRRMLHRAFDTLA

Compound	IC50 (VZV DNA polymerase; [2])	IC50 (HSV-1 DNA polymerase; [3])	IC50 (HIV-1 RT; [4])	IC50 (Human DNA Pol α; [5])	IC50 (Human DNA Pol β; [6])	IC50 ([1]; read-out: IC50 HCMV DNA Pol)	superior activity against HCMV DNA polymerase compared to thymine-α-CNP [1]	IC50 (VZV DNA polymerase)	IC50 (HSV-1 DNA polymerase)	IC50 (HIV-1 RT; [7])	IC50 (Human DNA Pol α)	IC50 (Human DNA Pol β)	further results
Cc1cn(C[C@H]2CCC[C@H]2COC(C(=O)O)P(=O)(O)O)c(=O)[nH]c1=O (relative stereo) [Compound 6a]	73 ± 1 µM	14 ± 14 µM	≥ 500 µM	165 ± 100 µM	> 500 µM	40 ± 25 µM							
Cc1cn(C[C@H]2C[C@H]2COC(C(=O)O)P(=O)(O)O)c(=O)[nH]c1=O (relative stereo) [Compound 6b]	12 ± 3 µM	36 ± 12 µM	440 ± 85 µM	183 ± 8 µM	390 ± 127 µM	4.6 ± 0.2 µM	8- to 13 fold						
Cc1cn(C[C@H]2CC=CC[C@H]2COC(C(=O)O)P(=O)(O)O)c(=O)[nH]c1=O (relative stereo) [Compound 6c]	8.5 ± 2.1 µM	14 ± 3 µM	425 ± 106 µM	48 ± 36 µM	> 500 µM	3 ± 0.5 µM	8- to 13 fold						
Cc1cn(C[C@H]2CCCC[C@H]2COC(C(=O)O)P(=O)(O)O)c(=O)[nH]c1=O (relative stereo) [Compound 6e]	16 ± 1 µM	8.6 ± 6.6 µM	≥ 500 µM	69 ± 21 µM	> 500 µM	4 µM	8- to 13 fold						
O=c1[nH]c(=O)n([C@H]2C[C@H](O)[C@@H](COP(=O)(O)OP(=O)(O)OP(=O)(O)O)O2)cc1/C=C/Br [BVDU-TP, (E)-5-(2-Bromovinyl)-2′-deoxyuridine-5′-triphosphate, reference compound]								0.49 ± 0.09 µM	1.9 ± 0.9 µM	0.89 ± 0.4 µM	21 ± 10 µM	26 ± 4 µM	IC50 ([1]; IC50 HCMV DNA Pol): 3.6 ± 0.7 µM
Cc1cn(Cc2ccccc2COC(C(=O)O)P(=O)(O)O)c(=O)[nH]c1=O (centres unmarked) [Compound 6d, 2-(2-((2,4-Dioxo-5-methyl-pyrimidin-1-yl)methyl)benzyloxy)-2-phosphonoacetic acid]							~ 3 fold	2.9 ± 0.7 µM	7.5 ± 5 µM	131 ± 86 µM	75 ± 18 µM	76 ± 30 µM	more active against VZV DNA polymerase than thymine-α-CNP (VZV DNA polymerase; ratio vs thymine-α-CNP): 13 fold; more active against HSV-1 DNA polymerase than thymine-α-CNP (HSV-1 DNA polymerase; ratio vs thymine-α-CNP): ~ 3 fold
Cc1cn(Cc2cn(CCOC(C(=O)O)P(=O)(O)O)nn2)c(=O)[nH]c1=O (centres unmarked) [Compound 6f, 2-(2-(4-((5-methyl-2,4-dioxo-3,4-dihydropyrimidin-1(2H)-yl)methyl)-1H-1,2,3-triazol-1-yl)ethoxy)-2-phosphonoacetic acid]								24 ± 4 µM	25 ± 21 µM	> 500 µM	332 ± 28 µM	361 ± 160 µM	IC50 ([1]; IC50 HCMV DNA Pol): 38 ± 6 µM
Cc1cn(CCCCOC(C(=O)O)P(=O)(O)O)c(=O)[nH]c1=O (centres unmarked) [Compound 6h, 2-(4-(2,4-Dioxo-5-methyl-pyrimidin-1-yl)butyloxy)-2-phosphonoacetic acid]								27 ± 12 µM	45 ± 27 µM	145 ± 106 µM	301 ± 51 µM	450 ± 105 µM	
Nc1ncnc2c1ncn2[C@H]1CC[C@@H](COP(=O)(O)OP(=O)(O)OP(=O)(O)O)O1 [ddATP, reference compound]													IC50 (HIV-1 RT; IC50 HIV-1 RT Poly rA.dT ([3H]dTTP), Table 7, Poly rA.dT, [3H]dTTP): > 20 µM; IC50 (HIV-1 RT; IC50 HIV-1 RT Poly rC.dG ([3H]dGTP), Poly rC.dG, [3H]dGTP): > 20 µM; IC50 (HIV-1 RT; IC50 HIV-1 RT Poly rI.dC ([3H]dCTP), Poly rI.dC, [3H]dCTP): > 20 µM; IC50 (HIV-1 RT; IC50 HIV-1 RT Poly rU.dA ([3H]dATP), Poly rU.dA, [3H]dATP): 0.46 ± 0.12 µM
Nc1ccn([C@H]2CC[C@@H](COP(=O)(O)OP(=O)(O)OP(=O)(O)O)O2)c(=O)n1 [ddCTP, reference compound]													IC50 (HIV-1 RT; IC50 HIV-1 RT Poly rA.dT ([3H]dTTP)): > 20 µM; IC50 (HIV-1 RT; IC50 HIV-1 RT Poly rC.dG ([3H]dGTP)): > 20 µM; IC50 (HIV-1 RT; IC50 HIV-1 RT Poly rI.dC ([3H]dCTP)): 3.1 ± 2.2 µM; IC50 (HIV-1 RT; IC50 HIV-1 RT Poly rU.dA ([3H]dATP)): > 20 µM
Nc1nc2c(ncn2[C@H]2CC[C@@H](COP(=O)(O)OP(=O)(O)OP(=O)(O)O)O2)c(=O)[nH]1 [ddGTP, reference compound]													IC50 (HIV-1 RT; [8]): > 20 µM; IC50 (HIV-1 RT; [9]): 0.26 ± 0.17 µM; IC50 (HIV-1 RT; [10]): > 20 µM; IC50 (HIV-1 RT; [11]): > 20 µM
Cc1cn([C@H]2CC[C@@H](COP(=O)(O)OP(=O)(O)OP(=O)(O)O)O2)c(=O)[nH]c1=O [ddTTP, reference compound]													IC50 (HIV-1 RT; [8]): 0.05 ± 0.01 µM; IC50 (HIV-1 RT; [9]): > 20 µM; IC50 (HIV-1 RT; [10]): > 20 µM; IC50 (HIV-1 RT; [11]): > 20 µM
